Results taken from PMC8243516, “Inhibition of lysosomal phospholipase A2 predicts drug-induced phospholipidosis” (Journal of Lipid Research, 2021).
“Also recorded” adds a separate entry of the source. Read-outs that look alike come from different tables or passages of the source.

Columns and labels:
LPLA2 [1] = target: T1, LPLA2 (Mus musculus, UniProt Q8VEB4); test: LPLA2 esterase assay with pNPB; assay type: biochemical; settings: pNPB substrate, no liposomes
T1 construct: purchased Proteos Inc. (Kalamazoo, MI)
T1 sequence (Q8VEB4 34-412): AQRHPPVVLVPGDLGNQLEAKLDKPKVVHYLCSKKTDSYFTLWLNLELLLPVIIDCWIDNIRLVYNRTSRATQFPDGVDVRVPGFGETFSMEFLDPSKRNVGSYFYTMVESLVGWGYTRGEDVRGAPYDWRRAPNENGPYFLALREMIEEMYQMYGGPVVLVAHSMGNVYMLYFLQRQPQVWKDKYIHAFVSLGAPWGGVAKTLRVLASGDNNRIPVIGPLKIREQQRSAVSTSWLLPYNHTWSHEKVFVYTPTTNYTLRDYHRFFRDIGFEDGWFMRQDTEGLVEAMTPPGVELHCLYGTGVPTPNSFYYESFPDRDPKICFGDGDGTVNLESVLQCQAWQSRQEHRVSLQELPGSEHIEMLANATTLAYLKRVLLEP
Protocol: pNPB was used to directly measure the activity of LPLA2. pNPB is a water-soluble substrate that can directly access the catalytic site in the absence of liposomes ([25]). A reaction mixture of pNPB (0.2 mM) and cationic amphiphilic compounds at varying concentrations in sodium citrate buffer (pH 4.5) was prepared and prewarmed to 37°C for 5 min in a total volume of 500 μl. The reaction was initiated by the addition of recombinant LPLA2 (5 μg). At predetermined times, 120 μl of the reaction mixture was transferred to a tube containing 120 μl of 0.2 M NaHCO3 and kept on ice. The cold reaction product was subsequently warmed to 37°C, and the absorbance of the reaction product, p-nitrophenoxide, was measured at 400 nm with a Beckman Du-640 spectrophotometer.

[2] = target: T2, recombinant mouse LPLA2 (PLA2G15) (Mus musculus, UniProt Q8VEB4); test: Transacylase activity of LPLA2 (1-O-acyl-N-acetylsphingosine synthase, cell-free liposome assay); assay type: biochemical; settings: read-out: LPLA2 IC50
T2 construct: purchased Proteos Inc. (Kalamazoo, MI)
T2 sequence (Q8VEB4 34-412): T1 sequence (Q8VEB4 34-412)

[3] = target: T3, LPLA2 binding to DOPC/sulfatide liposomes (Mus musculus, UniProt Q8VEB4); test: Liposome LPLA2 cosedimentation assay; settings: 150,000 g
T3 construct: purchased Proteos Inc. (Kalamazoo, MI)
T3 sequence (Q8VEB4 34-412): T1 sequence (Q8VEB4 34-412)

LPLA2 [4] = target: T1, LPLA2; test: LPLA2 thermal stability measurement (SYPRO Orange Tm); assay type: binding; settings: N=3 ± SD
[5] = ref Pubchem and chEMBL database; cited from earlier work
MDCK cells [6] = test: LipidTOX red particle quantification by fluorescence microscopy; assay type: cell-based
MDCK cells [7] = test: Screening phospholipidosis assay (LipidTOX Red / NucBlue Live fluorescence ratio); settings: LipidTOX Red to NucBlue Live fluorescence ratio, 24 h, 15 μM
LPLA2 [8] = target: T1, LPLA2; test: LPLA2 transacylation activity toward p-NPB (1-O-butanoyl-N-acetylsphingosine formation); assay type: biochemical; settings: 250 nM fosinopril; LPLA2, N-acetylsphingosine and p-NPB as monodispersion

Question: For CCC(=O)O[C@@H](O[P@](=O)(CCCCc1ccccc1)CC(=O)N1C[C@H](C2CCCCC2)C[C@H]1C(=O)O)C(C)C [Fosinopril], which “Inhibition of soluble esterase activity of LPLA2” value (LPLA2 [1]) is on record?
Answer: no inhibition

Question: What about the IC50 ([2]; 1-O-acyl N-acetylsphingosine synthase activity, pH 4.5, DOPC/sulfatide liposomes) of the same compound?
Answer: 180 nM

Question: What about the IC50 ([2]; LPLA2 dependent 1-O-acyl N-acetylsphingosine synthase activity) of the same compound?
Answer: 181 nM

Question: What about the IC50 [2] of the same compound?
Answer: 180 nM

Question: What about the “Cosedimentation of liposomes and recombinant LPLA2” value [3] of the same compound?
Answer: partially inhibited

Question: What about the “(ΔTm)c-(ΔTm)d, difference in melting temperature of LPLA2 alone or in the presence of drug” value (LPLA2 [4]) of the same compound?
Answer: -0.90 ± 0.1 °C

Question: What about the “pKa (basic)” value [5] of the same compound?
Answer: -4.4

Question: And the Percent area (MDCK cells [6]; 325 nM)?
Answer: increases

Question: What about the “Increase in LipidTOX Red particle number versus controls” value (MDCK cells [6]; 325 nM, 24 h) of the same compound?
Answer: ~20 fold

Question: And the “LipidTOX Red staining” value (MDCK cells [6]; 24 h, versus non-treated control)?
Answer: significant increase

Question: What about the Cell number (MDCK cells [6]; versus non-treated control) of the same compound?
Answer: No change

Question: And the “LipidTOX Red particle number (in words)” value (MDCK cells [6]; versus non-treated control)?
Answer: significant increase; also recorded: significantly increased

Question: What about the “Mean fluorescence intensity (MFI)” value (MDCK cells [6]; versus non-treated control) of the same compound?
Answer: significant increase; also recorded: increases

Question: What about the “Ratio (15 μM)” value (MDCK cells [7]) of the same compound?
Answer: 0.67

Question: What about the “Inhibition of 1-O-butanoyl-N-acetylsphingosine formation” value (LPLA2 [8]) of the same compound?
Answer: no inhibition
